Experimental data taken from EP4671247A1, “SUBSTITUTED PYRAZOLOPYRIMIDINE COMPOUND AND PHARMACEUTICAL USE THEREOF” (Japan Tobacco Inc., priority 2023, dated 2024).

Each molecule was assayed against T1, NLRP3 inflammasome (Homo sapiens, UniProt Q96P20) (assay: Evaluation of NLRP3 inflammasome inhibitory activity (inhibition of IL-1β production in LPS/Nigericin-stimulated THP1-Null cells, AlphaLISA)). Details: IC50, IL-1β production in THP1-Null cells; PMA, 1 µg/mL Lipopolysaccharides 3 hours, Nigericin 7.5 µmol/L 1.5 hours.
T1 construct: host or cells: THP1-Null cells (PMA-differentiated, LPS-primed, nigericin-stimulated)
Type: cell-based
Method: The NLRP3 inflammasome inhibitory activity of test compounds were evaluated on the basis of the inhibitory activity of the IL-1β production in THP1-Null cells (Product Number: thp-null, InvivoGen).
The supernatant of the culture was removed, and thereto was added media for assay (25 µL/well) containing 1 µg/mL Lipopolysaccharides (Product Number: L2654, Sigma-Aldrich (registered trademark)). […] The supernatant of the culture was removed. […] A solution containing a test compound (20 µL/well) was added to test compound-setting wells. […] The supernatant of the culture was cryonically stored (set at -20°C) until measurement of IL-1β.
The amount of IL-1β in the culture supernatant was quantitated with AlphaLISA (registered trademark) Human IL-1β Detection Kit (Product Number: AL220C, Perkin Elmer). Fluorescence intensity was measured with a microplate reader EnSpier (Model number: 2300-00J, Perkin Elmer) or EnSight (Model number: HH34000000, Perkin Elmer) according to procedure manuals attached thereto. Inhibition rates of the test compound-setting wells were calculated on the basis of 100% for the blank-setting wells and 0% for the control-setting wells.

T1 sequence (Q96P20 whole entry): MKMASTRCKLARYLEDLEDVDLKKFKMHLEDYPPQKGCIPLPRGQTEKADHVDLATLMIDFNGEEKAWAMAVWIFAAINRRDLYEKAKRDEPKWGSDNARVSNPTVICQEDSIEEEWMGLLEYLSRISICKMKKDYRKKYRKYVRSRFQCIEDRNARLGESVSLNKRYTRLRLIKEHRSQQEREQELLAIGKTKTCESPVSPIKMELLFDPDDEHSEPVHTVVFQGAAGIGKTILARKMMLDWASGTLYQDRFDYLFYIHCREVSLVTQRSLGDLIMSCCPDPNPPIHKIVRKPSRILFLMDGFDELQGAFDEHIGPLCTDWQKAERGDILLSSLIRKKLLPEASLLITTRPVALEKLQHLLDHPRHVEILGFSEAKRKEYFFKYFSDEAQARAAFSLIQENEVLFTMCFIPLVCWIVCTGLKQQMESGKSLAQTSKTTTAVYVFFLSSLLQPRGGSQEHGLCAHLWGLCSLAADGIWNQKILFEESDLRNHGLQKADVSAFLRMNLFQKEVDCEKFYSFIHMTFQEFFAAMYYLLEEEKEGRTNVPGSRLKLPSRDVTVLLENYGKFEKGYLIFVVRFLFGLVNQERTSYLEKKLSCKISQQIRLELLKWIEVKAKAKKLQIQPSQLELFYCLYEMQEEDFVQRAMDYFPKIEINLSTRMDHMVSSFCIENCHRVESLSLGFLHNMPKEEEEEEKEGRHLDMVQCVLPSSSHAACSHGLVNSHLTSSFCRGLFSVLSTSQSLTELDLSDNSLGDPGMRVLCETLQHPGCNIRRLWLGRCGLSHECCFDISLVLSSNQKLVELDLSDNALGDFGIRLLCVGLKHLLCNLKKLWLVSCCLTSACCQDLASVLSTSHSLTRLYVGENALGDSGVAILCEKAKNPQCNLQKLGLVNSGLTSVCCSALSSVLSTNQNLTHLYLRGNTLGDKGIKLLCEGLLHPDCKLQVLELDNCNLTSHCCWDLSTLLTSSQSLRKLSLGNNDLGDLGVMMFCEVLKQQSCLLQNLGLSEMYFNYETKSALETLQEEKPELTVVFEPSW

Structure (SMILES) | IC50 [µM]
Cc1cc(Br)cc(C)c1-n1cc2c(=O)[nH]c(C34CC(C3)C4)nc2n1 [Example 60] | 0.06
Cc1cc(C(C)(C)F)cc(C)c1-n1cc2c(=O)[nH]c(C3CC3)nc2n1 [Example 85] | 0.029

Same assay, conditions: IL-1β production in THP1-Null cells; PMA, 1 µg/mL Lipopolysaccharides 3 hours, Nigericin 7.5 µmol/L 1.5 hours

Structure (SMILES) | IC50 [µM]
Cc1cc(Br)cc(C)c1-n1cc2c(=O)[nH]c([C@@H]3C[C@@H]3F)nc2n1 [Example 91] | 0.008
Cc1cc(Br)cc(C)c1-n1cc2c(=O)[nH]c(C3CC3F)nc2n1 (stereo not drawn) [Example 92] | 0.007

Same assay, conditions: IL-1β production in THP1-Null cells; PMA, 1 µg/mL Lipopolysaccharides 3 hours, Nigericin 7.5 µmol/L 1.5 hours; read-out: IC50

Structure (SMILES) | IC50 [µM]
Cc1cc(C2CC2)cc(C)c1-n1cc2c(=O)[nH]c(C34COC(C)(C3)C4)nc2n1 [Example 52] | 0.04
COc1cc(C)c(-n2cc3c(=O)[nH]c(C4CC4)nc3n2)c(C)c1 [Example 53] | 0.14
Cc1cc(OC(F)F)cc(C)c1-n1cc2c(=O)[nH]c(C3CC3)nc2n1 [Example 54] | 0.033
Cc1cc(C(F)(F)F)cc(C)c1-n1cc2c(=O)[nH]c(C3CC3)nc2n1 [Example 55] | 0.031
COCc1cc(C2CC2)cc(C)c1-n1cc2c(=O)[nH]c(C3CC3)nc2n1 [Example 58] | 0.036
Cc1nn(C2CCC2)c(C)c1-n1cc2c(=O)[nH]c(C3CC3)nc2n1 [Example 59] | 1.7
Cc1c(-n2cc3c(=O)[nH]c(C4CC4)nc3n2)c(C(F)(F)F)nn1C(C)C [Example 61] | 0.46
Cc1cc(Br)cc(C)c1-n1cc2c(=O)[nH]c(Cn3cccn3)nc2n1 [Example 62] | 0.23
Cc1cc(OC(F)F)cc(C)c1-n1cc2c(=O)[nH]c(C3CCOCC3)nc2n1 [Example 64] | 0.022
Cc1c(-n2cc3c(=O)[nH]c(C4CCCC4)nc3n2)c(C(F)(F)F)nn1C(C)C [Example 65] | 0.3
Cc1cc(Br)cc(C)c1-n1cc2c(=O)[nH]c(CN3CCCC3=O)nc2n1 [Example 66] | 0.43
COc1cc(C)c(-n2cc3c(=O)[nH]c(COCc4ccccc4)nc3n2)c(C)c1 [Example 67] | 0.78
Cc1cc(Br)cc(C)c1-n1cc2c(=O)[nH]c(C3(F)CCC3)nc2n1 [Example 68] | 0.076
Cc1cc(C2CC2)cc(C)c1-n1cc2c(=O)[nH]c(C3(F)CCC3)nc2n1 [Example 69] | 0.067
Cc1cc(Br)cc(C)c1-n1cc2c(=O)[nH]c(C(C)(C)F)nc2n1 [Example 70] | 0.13
Cc1cc(Br)cc(C)c1-n1cc2c(=O)[nH]c(C3CCCCC3)nc2n1 [Example 71] | 0.011
CC(=O)c1c2c(=O)[nH]c(C3COC3)nc2nn1-c1c(C)cc(Br)cc1C [Example 72] | 0.057
Cc1cc(C2CC2)cc(C)c1-n1cc2c(=O)[nH]c(C3(F)CCOCC3)nc2n1 [Example 73] | 0.021
Cc1cc(Br)cc(C)c1-n1cc2c(=O)[nH]c(COCCC(C)(C)O)nc2n1 [Example 74] | 0.19
Cc1cc(C2CC2)cc(OC(F)F)c1-n1cc2c(=O)[nH]c(C3CC3)nc2n1 [Example 75] | 0.011
COCc1cc(OC(F)F)cc(C)c1-n1cc2c(=O)[nH]c(C3CC3)nc2n1 [Example 76] | 0.082
Cc1cc(Br)cc(C)c1-n1cc2c(=O)[nH]c(C3COC3)nc2n1 [Example 77] | 0.014
Cc1cc(C(C)(F)F)cc(C)c1-n1cc2c(=O)[nH]c(C3CC3)nc2n1 [Example 80] | 0.029

Structure (SMILES) | IC50 [µM]
Cc1cc(Br)cc(C)c1-n1cc2c(=O)[nH]c(C3CCOCC3)nc2n1 [Example 81] | 0.004
Cc1cc(Br)cc(C)c1-n1nc2nc(C3CCOCC3)[nH]c(=O)c2c1C(F)F [Example 82] | 0.016
Cc1cc(C2CC2)cc(C)c1-n1nc2nc(C3CC3)[nH]c(=O)c2c1CO [Example 83, 6-cyclopropyl-2-(4-cyclopropyl-2,6-dimethylphenyl)-3-(hydroxymethyl)-2,5-dihydro-4H-pyrazolo[3,4-d]pyrimidin-4-one] | 0.024
Cc1cc(C2CC2)cc(C)c1-n1nc2nc(C3CC3)[nH]c(=O)c2c1CF [Example 84] | 0.015
Cc1cc(C2CC2)cc(C)c1-n1nc2nc(C3CC3)[nH]c(=O)c2c1C#N [Example 87] | 0.011
COCc1c2c(=O)[nH]c(C3CC3)nc2nn1-c1c(C)cc(C2CC2)cc1C [Example 88, 6-cyclopropyl-2-(4-cyclopropyl-2,6-dimethylphenyl)-3-(methoxymethyl)-2,5-dihydro-4H-pyrazolo[3,4-d]pyrimidin-4-one] | 0.018
Cc1cc(OC(F)F)cc(C)c1-n1cc2c(=O)[nH]c(C3CC(C)OC(C)C3)nc2n1 (stereo not drawn) [Example 89] | 0.45
Cc1cc(OC(F)F)cc(C)c1-n1cc2c(=O)[nH]c(C3CCN(C)CC3)nc2n1 [Example 90] | 0.068
COc1cc(C)c(-n2cc3c(=O)[nH]c(C45CC(CO)(CO4)C5)nc3n2)c(C)c1 [Example 94] | 0.22
Cc1cc(C2CC2)cc(C)c1-n1cc2c(=O)[nH]c(C34CC(CO)(CO3)C4)nc2n1 [Example 95] | 0.042
Cc1cc(Br)cc(C)c1-n1cc2c(=O)[nH]c(COCCO)nc2n1 [Example 96] | 0.27
Cc1cc(Br)cc(C)c1-n1cc2c(=O)[nH]c(C3(F)CCOCC3)nc2n1 [Example 97] | 0.024
CCOCCc1nc2nn(-c3c(C)cc(Br)cc3C)cc2c(=O)[nH]1 [Example 98] | 0.098
COCCc1nc2nn(-c3c(C)cc(C4CC4)cc3C)cc2c(=O)[nH]1 [Example 99] | 0.043
Cc1cc(C2CC2)cc(C)c1-n1cc2c(=O)[nH]c(CCF)nc2n1 [Example 101] | 0.024
Cc1cc(Br)cc(C)c1-n1cc2c(=O)[nH]c(C3=CCOCC3)nc2n1 [Example 102] | 0.008
Cc1cc(C2CC2(F)F)cc(C)c1-n1cc2c(=O)[nH]c(C3CC3(F)F)nc2n1 (stereo not drawn) [Example 103] | 0.064
Cc1cc(C2CC2)cc(C)c1-n1cc2c(=O)[nH]c(CO)nc2n1 [Example 105] | 0.013
Cc1cc(C2CC2)cc(C)c1-n1cc2c(=O)[nH]c(CCO)nc2n1 [Example 106] | 0.028
Cc1cc(C(C)(F)F)cc(C)c1-n1cc2c(=O)[nH]c(C3(F)CCOCC3)nc2n1 [Example 107] | 0.015
Cc1cc(Br)cc(C)c1-n1cc2c(=O)[nH]c(C3(F)COC3)nc2n1 [Example 108] | 0.049
Cc1cc(C(C)(C)F)cc(C)c1-n1cc2c(=O)[nH]c(C3(F)CCOCC3)nc2n1 [Example 109] | 0.017
Cc1cc(C2CC2)cc(F)c1-n1cc2c(=O)[nH]c(C3(F)CCOCC3)nc2n1 [Example 110] | 0.019

Structure (SMILES) | IC50 [µM]
COc1cc(C2CC2)cc(C)c1-n1cc2c(=O)[nH]c(C3(F)CCOCC3)nc2n1 [Example 111] | 0.015
Cc1cc(Br)cc(C)c1-n1cc2c(=O)[nH]c(CN3CCCCC3)nc2n1 [Example 112] | 0.14
Cc1cc(C(C)(F)F)cc(C)c1-n1cc2c(=O)[nH]c(C3(F)COC3)nc2n1 [Example 116] | 0.28
Cc1cc(C2CC2)cc(C)c1-n1cc2c(=O)[nH]c(C3=CCOCC3)nc2n1 [Example 131] | 0.005
Cc1cc(Br)cc(C)c1-n1cc2c(=O)[nH]c(COC(F)F)nc2n1 [Example 132] | 0.024
Cc1cc(OC(F)F)cc(C)c1-n1cc2c(=O)[nH]c(C3=CCOCC3)nc2n1 [Example 135] | 0.033
Cc1cc(OC(F)F)cc(C)c1-n1cc2c(=O)[nH]c(C3(F)CCOCC3)nc2n1 [Example 136] | 0.049
Cc1cc(C2CC2)cc(C)c1-n1cc2c(=O)[nH]c(COC(F)F)nc2n1 [Example 145] | 0.013
Cc1cc(OC(F)F)cc(C)c1-n1cc2c(=O)[nH]c(COC(F)F)nc2n1 [Example 148] | 0.061
Cc1cc(C(C)(F)F)cc(C)c1-n1cc2c(=O)[nH]c(C3=CCOCC3)nc2n1 [Example 153] | 0.017
Cc1cc(OC(F)F)cc(C)c1-n1cc2c(=O)[nH]c(C3(F)CC3)nc2n1 [Example 159] | 0.057
Cc1cc(Br)cc(C)c1-n1cc2c(=O)[nH]c(CC3CC3)nc2n1 [Example 161] | 0.01
Cc1cc(C(C)(F)F)cc(C)c1-n1cc2c(=O)[nH]c(C3(F)CC3)nc2n1 [Example 162] | 0.057
Cc1cc(OC(F)F)cc(C)c1-n1cc2c(=O)[nH]c(CC3CC3)nc2n1 [Example 164] | 0.067
CCc1nc2nn(-c3c(C)cc(OC(F)F)cc3C)cc2c(=O)[nH]1 [Example 180] | 0.02
CCc1nc2nn(-c3c(C)cc(C(C)(F)F)cc3C)cc2c(=O)[nH]1 [Example 181] | 0.018
Cc1cc(Br)cc(C)c1-n1cc2c(=O)[nH]c([C@H]3CCOCCO3)nc2n1 [Example 185] | 0.023
Cc1cc(Br)cc(C)c1-n1cc2c(=O)[nH]c([C@@H]3CCOCCO3)nc2n1 [Example 186] | 0.087
CCc1nc2nn(-c3c(C)cc(C4(F)CC4)cc3C)cc2c(=O)[nH]1 [Example 192] | 0.02
Cc1cc(C2CC2)cc(C)c1-n1cc2c(=O)[nH]c(C(=O)N(C)C)nc2n1 [Example 195] | 0.18
CNC(=O)c1nc2nn(-c3c(C)cc(C4CC4)cc3C)cc2c(=O)[nH]1 [Example 196] | 0.022

Same assay, conditions: test compound at 0.002 µM; IL-1β production in THP1-Null cells

Structure (SMILES) | inhibition at 0.002 µM [%]
Cc1cc(OC(F)F)cc(C)c1-n1cc2c(=O)[nH]c(C3=COCC3)nc2n1 [Example 175] | 54
